Data: publication PMC2682573, “A Novel Two Mode-Acting Inhibitor of ABCG2-Mediated Multidrug Transport and Resistance in Cancer Chemotherapy” (PLoS ONE, 2009)

Experiments:
[1] = target: T1, ABCG2 (Homo sapiens, UniProt Q9UNQ0); assay: mitoxantrone accumulation ([…]) and 5D3 conformational staining ([…]) in HEK293/ABCG2 cells; assay type: cell-based
T1 sequence (Q9UNQ0 1-655): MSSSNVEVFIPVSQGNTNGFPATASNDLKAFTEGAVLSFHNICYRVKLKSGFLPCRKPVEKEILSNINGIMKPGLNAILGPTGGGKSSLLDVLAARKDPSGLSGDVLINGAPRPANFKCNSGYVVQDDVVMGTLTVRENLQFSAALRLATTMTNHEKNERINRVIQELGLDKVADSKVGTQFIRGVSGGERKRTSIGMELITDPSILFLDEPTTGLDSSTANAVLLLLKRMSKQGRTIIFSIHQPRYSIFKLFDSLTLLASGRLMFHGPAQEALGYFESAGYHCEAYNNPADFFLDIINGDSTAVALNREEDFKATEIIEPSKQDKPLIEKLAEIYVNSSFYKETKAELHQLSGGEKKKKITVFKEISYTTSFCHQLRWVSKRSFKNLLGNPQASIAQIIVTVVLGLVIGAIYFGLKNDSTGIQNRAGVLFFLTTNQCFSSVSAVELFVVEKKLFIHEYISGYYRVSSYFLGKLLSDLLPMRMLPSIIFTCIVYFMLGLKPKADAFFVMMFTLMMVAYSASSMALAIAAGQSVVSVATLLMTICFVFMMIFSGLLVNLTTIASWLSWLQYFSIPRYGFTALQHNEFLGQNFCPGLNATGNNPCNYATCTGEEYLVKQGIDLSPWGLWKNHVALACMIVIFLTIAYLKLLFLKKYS

[2] = target: T1, ABCG2; assay: reference inhibitor; mitoxantrone accumulation, 5D3 conformational staining and sensitization IC50 in HEK293/ABCG2 cells; assay type: cell-based
[3] = target: T1, ABCG2; conditions: hek293/abcg2 inside-out membrane vesicles

Structure (SMILES)	mitoxantrone accumulation (3 μM) and 5D3 conformational staining (10 μM) in HEK2 [1]	also measured
O=C(CSc1nc2ccc(Nc3nc(Nc4ccccc4)nc(Nc4ccccc4)n3)cc2s1)N1CCCC1 [E2]	All three analogues had similar activity as PZ-39 in enhancing mitoxantrone accumulation	–
CC(=O)CSc1nc2ccc(Nc3nc(N4CCOCC4)nc(N4CCOCC4)n3)cc2s1 [C8]	All three analogues had similar activity as PZ-39 in enhancing mitoxantrone accumulation	–
CC(C)(C)NC(=O)CSc1nc2ccc(Nc3nc(N4CCOCC4)nc(N4CCOCC4)n3)cc2s1 [C6]	All three analogues had similar activity as PZ-39 in enhancing mitoxantrone accumulation	–
COc1ccc2c3c([nH]c2c1)[C@H](C=C(C)C)N1C(=O)[C@@H]2CCCN2C(=O)[C@@H]1C3 [FTC, Fumitremorgin C]	–	IC50 (μM) / Inhibitor+MX ^a [2]: 0.387 ± 0.054 µM
O=C1c2c(O)ccc(O)c2C(=O)c2c(NCCNCCO)ccc(NCCNCCO)c21 [mitoxantrone]	–	Km [3]: 2300 nM
